EC50 data for 22 molecules are collected here from patent publication US7375109B2, “Glycine-substituted thieno[2,3-d]pyrimidines with combined LH and FSH agonistic activity” (N.V. Organon, priority 2001, dated 2008).

One experiment addresses T1, human LH receptor (Homo sapiens, UniProt P22888).
T1 construct: expressed in transfected cells; host or cells: Chinese Hamster Ovary (CHO) cells, stably transfected; cotransfected with CRE-luciferase reporter
As to the kind of experiment: CHO-LH in vitro bioactivity (CRE-luciferase reporter). The class given is cell-based. Conditions: CHO cells stably transfected with human LH receptor. On the procedure: (§1) It has been shown that compounds of the above mentioned formula I show agonistic LH and FSH activity. […] Typically the FSH activity ranges from an activity of about 0.1% of the LH agonist stimulation to about 10% of the LH agonist stimulation.
(§2) LH agonistic activity of compounds were tested in Chinese Hamster Ovary (CHO) cells stably transfected with the human LH receptor and cotransfected with a cAMP responsive element (CRE)/promotor directing the expression of a firefly luciferase reporter gene. Binding of ligand to the Gs-coupled LH receptor will result in an increase of cAMP, which in turn will induce an increased transactivation of the luciferase reporter construct. The luciferase signal was quantified using a luminescence counter. For test compounds, EC50 values (concentration of test compound causing half-maximal (50%) stimulation) were calculated. For that purpose the software program GraphPad PRISM, version 3.0 (GraphPad software Inc., San Diego) was used.

A further experiment addresses T2, human FSH receptor (Homo sapiens, UniProt P23945).
T2 construct: expressed in transfected cells; host or cells: CHO cells transfected with human FSH receptor and CRE-luciferase reporter
T2 sequence (P23945 18-695): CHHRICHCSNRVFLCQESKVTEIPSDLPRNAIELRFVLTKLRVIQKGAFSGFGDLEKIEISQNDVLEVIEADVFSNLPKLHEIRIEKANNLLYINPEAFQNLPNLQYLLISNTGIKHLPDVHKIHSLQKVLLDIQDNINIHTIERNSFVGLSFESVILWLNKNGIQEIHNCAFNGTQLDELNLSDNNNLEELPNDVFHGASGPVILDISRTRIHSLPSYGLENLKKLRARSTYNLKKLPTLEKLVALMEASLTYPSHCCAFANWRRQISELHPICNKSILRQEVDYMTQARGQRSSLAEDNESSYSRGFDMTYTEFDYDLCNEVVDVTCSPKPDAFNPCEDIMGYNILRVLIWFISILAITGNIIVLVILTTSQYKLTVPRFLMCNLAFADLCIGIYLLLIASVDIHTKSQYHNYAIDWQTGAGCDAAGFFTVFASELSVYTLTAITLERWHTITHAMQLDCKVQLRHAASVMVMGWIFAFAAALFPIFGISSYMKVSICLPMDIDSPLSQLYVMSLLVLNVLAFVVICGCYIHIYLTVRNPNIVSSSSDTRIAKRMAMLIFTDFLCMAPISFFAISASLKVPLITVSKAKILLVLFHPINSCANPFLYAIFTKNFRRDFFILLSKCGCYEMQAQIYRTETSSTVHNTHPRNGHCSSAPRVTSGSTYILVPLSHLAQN
As to the kind of experiment: CHO-FSH in vitro bioactivity (CRE-luciferase reporter). The class given is cell-based. As to conditions: CHO cells transfected with human FSH receptor and luciferase reporter gene. On the procedure: as §1, §2
In a similar way FSH agonistic activity of compounds were tested in CHO cells transfected with the luciferase reporter gene and the human FSH receptor.

pEC50: −log10 of the molar value.

T1 sequence (P22888 27-699): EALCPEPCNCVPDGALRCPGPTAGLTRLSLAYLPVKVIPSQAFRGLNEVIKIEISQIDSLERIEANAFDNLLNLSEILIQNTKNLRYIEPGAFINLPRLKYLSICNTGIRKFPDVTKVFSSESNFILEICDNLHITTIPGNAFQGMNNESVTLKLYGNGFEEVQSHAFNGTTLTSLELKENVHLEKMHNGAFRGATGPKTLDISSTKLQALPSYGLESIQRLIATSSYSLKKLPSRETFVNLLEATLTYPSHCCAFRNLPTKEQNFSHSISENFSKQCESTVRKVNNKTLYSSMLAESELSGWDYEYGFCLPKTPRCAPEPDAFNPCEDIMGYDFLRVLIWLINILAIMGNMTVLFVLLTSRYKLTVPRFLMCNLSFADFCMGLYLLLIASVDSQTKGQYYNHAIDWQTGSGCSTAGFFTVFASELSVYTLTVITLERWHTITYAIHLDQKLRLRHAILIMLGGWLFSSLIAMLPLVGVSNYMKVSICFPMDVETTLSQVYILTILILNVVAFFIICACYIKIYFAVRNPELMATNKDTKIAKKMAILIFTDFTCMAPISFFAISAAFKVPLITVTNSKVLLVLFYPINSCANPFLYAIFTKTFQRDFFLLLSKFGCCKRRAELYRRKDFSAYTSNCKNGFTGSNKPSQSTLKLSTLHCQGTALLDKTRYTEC

Consider `COC(=O)CNCC(=O)Nc1cccc(-c2nc(-c3ccco3)nc3sc(C(=O)NC(C)(C)C)c(N)c23)c1` [Example 13], for which the negative logarithm of the EC50 (pEC50) at human LH receptor is 7.92; at human FSH receptor, 5.59.
The like results for `COC(=O)CNCC(=O)Nc1cccc(-c2nc(-c3cccs3)nc3sc(C(=O)NC(C)(C)C)c(N)c23)c1` [Example 15, tert-Butyl 5-amino-2-(2-thienyl)-4-(3-((N-(methoxycarbonylmethyl)-glycinyl)-amino)-phenyl)-thieno[2,3-d]pyrimidine-6-carboxamide] were, in that order, 7.74 and 5.49.
The corresponding values for `CCN(CCOC)CC(=O)Nc1cccc(-c2nc(OC)nc3sc(C(=O)NC(C)(C)C)c(N)c23)c1` [Example 22, tert-Butyl 5-amino-2-methoxy-4-(3-((N-ethyl-N-(2-methoxyethyl)-glycinyl)-amino)-phenyl)-thieno[2,3-d]pyrimidine-6-carboxamide] are 7.94 and 6.02.
With `COC(=O)[C@H](NCC(=O)Nc1cccc(-c2nc(SC)nc3sc(C(=O)NC(C)(C)C)c(N)c23)c1)C(C)C` [Example 5, tert-Butyl 5-amino-2-methylthio-4-(3-((N-(R-1-methoxycarbonyl-2-methyl-prop-1-yl)-glycinyl)-amino)-phenyl)-thieno[2,3-d]pyrimidine-6-carboxamide], the pEC50 at human LH receptor is 8.02; on human FSH receptor it was 6.46.
With `CN(CCO)CC(=O)Nc1cccc(-c2nc(N(C)C)nc3sc(C(=O)NC(C)(C)C)c(N)c23)c1` [Example 18, tert-Butyl 5-amino-2-(N,N-dimethylamino)-4-(3-((N-methyl-N-(2-hydroxyethyl)-glycinyl)-amino)-phenyl)-thieno[2,3-d]pyrimidine-6-carboxamide], the results for the pEC50 at human LH receptor and at human FSH receptor were 7.84 and 5.79, respectively.
The corresponding values for `COCCN(CCOC)CC(=O)Nc1cccc(-c2nc(-c3cccs3)nc3sc(C(=O)NC(C)(C)C)c(N)c23)c1` [Example 16, tert-Butyl 5-amino-2-(2-thienyl)-4-(3-((N,N-di-(2-methoxyethyl)-glycinyl)-amino)-phenyl)-thieno[2,3-d]pyrimidine-6-carboxamide] are 7.67 and 5.17.
The like results for `CCNc1nc(-c2cccc(NC(=O)CNCC(=O)OC)c2)c2c(N)c(C(=O)NC(C)(C)C)sc2n1` [Example 19, tert-Butyl 5-amino-2-ethylamino-4-(3-((N-(methoxycarbonylmethyl)-glycinyl)-amino)-phenyl)-thieno[2,3-d]pyrimidine-6-carboxamide] were, in that order, 7.64 and 5.64.
The like results for `COC(=O)CNCC(=O)Nc1cccc(-c2nc(SC)nc3sc(C(=O)NC(C)(C)C)c(N)c23)c1` [Example 3, tert-Butyl 5-amino-2-methylthio-4-(3-((N-(methoxycarbonylmethyl)-glycinyl)-amino)-phenyl)-thieno[2,3-d]pyrimidine-6-carboxamide] were, in that order, 8.22 and 5.84.
On to `CC(C)(C)NC(=O)c1sc2nc(-c3ccco3)nc(-c3cccc(NC(=O)CNC(C)(C)CO)c3)c2c1N` [Example 12], for which the pEC50 was 7.93 on human LH receptor and 5.53 at human FSH receptor.
In the case of `CN(CCO)CC(=O)Nc1cccc(-c2nc(-c3ccco3)nc3sc(C(=O)NC(C)(C)C)c(N)c23)c1` [Example 11, tert-Butyl 5-amino-2-(2-furyl)-4-(3-((N-methyl-N-(2-hydroxyethyl)-glycinyl)-amino)-phenyl)-thieno[2,3-d]pyrimidine-6-carboxamide], the pEC50 was 8.40 at human LH receptor and 6.21 at human FSH receptor.
The corresponding values for `CC(C)(C)NC(=O)c1sc2nc(-c3ccncc3)nc(-c3cccc(NC(=O)CNC(C)(C)CO)c3)c2c1N` [Example 25, tert-Butyl 5-amino-2-(4-pyridyl)-4-(3-((N-(1-hydroxy-2-methyl-prop-2-yl) -glycinyl)-amino)-phenyl)-thieno[2,3-d]pyrimidine-6-carboxamide] are 7.46 and 6.40.
The like results for `CCN(CCOC)CC(=O)Nc1cccc(-c2nc(NC(C)C)nc3sc(C(=O)NC(C)(C)C)c(N)c23)c1` [Example 20, tert-Butyl 5-amino-2-isopropylamino-4-(3-((N-ethyl-N-(2-methoxyethyl)-glycinyl)-amino)-phenyl)-thieno[2,3-d]pyrimidine-6-carboxamide] were, in that order, 7.37 and 5.53.
The like results for `CSc1nc(-c2cccc(NC(=O)CNC(CO)CO)c2)c2c(N)c(C(=O)NC(C)(C)C)sc2n1` [Example 8] were, in that order, 7.58 and 6.00.
Take `CN(CCO)CC(=O)Nc1cccc(-c2nc(-c3cccs3)nc3sc(C(=O)NC(C)(C)C)c(N)c23)c1` [Example 14, tert-Butyl 5-amino-2-(2-thienyl)-4-(3-((N-methyl-N-(2-hydroxyethyl)-glycinyl)-amino)-phenyl)-thieno[2,3-d]pyrimidine-6-carboxamide]: the pEC50 is 8.28 on human LH receptor and 5.84 on human FSH receptor.
The corresponding values for `C=CCOc1nc(-c2cccc(NC(=O)CN(CC)CCOC)c2)c2c(N)c(C(=O)NC(C)(C)C)sc2n1` [Example 23, tert-Butyl 5-amino-2-allyloxy-4-(3-((N-ethyl-N-(2-methoxyethyl)-glycinyl)-amino)-phenyl)-thieno[2,3-d]pyrimidine-6-carboxamide] are 7.43 and 5.76.
The like results for `CCN(CCOC)CC(=O)Nc1cccc(-c2nc(OC(C)C)nc3sc(C(=O)NC(C)(C)C)c(N)c23)c1` [Example 24, tert-Butyl 5-amino-2-isopropoxy-4-(3-((N-ethyl-N-(2-methoxyethyl)-glycinyl)-amino)-phenyl)-thieno[2,3-d]pyrimidine-6-carboxamide] were, in that order, 7.11 and 5.60.
The like results for `COCCN(CCOC)CC(=O)Nc1cccc(-c2nc(-c3ccncc3)nc3sc(C(=O)NC(C)(C)C)c(N)c23)c1` [Example 26, tert-Butyl 5-amino-2-(4-pyridyl)-4-(3-((N,N-bis-(2-methoxyethyl)-glycinyl)-amino)-phenyl)-thieno[2,3-d]pyrimidine-6-carboxamide] were, in that order, 7.42 and 5.91.
In the case of `COC(=O)CNCC(=O)Nc1cccc(-c2nc(-c3ccccc3)nc3sc(C(=O)NC(C)(C)C)c(N)c23)c1` [Example 10], the values for the pEC50 on human LH receptor and at human FSH receptor were 8.00 and 5.61, respectively.
The like results for `COCCN(CCOC)CC(=O)Nc1cccc(-c2nc(SC)nc3sc(C(=O)NC(C)(C)C)c(N)c23)c1` [Example 6, tert-Butyl 5-amino-2-methylthio-4-(3-((N,N-bis-(2-methoxyethyl)-glycinyl)-amino)-phenyl)-thieno[2,3-d]pyrimidine-6-carboxamide] were, in that order, 8.00 and 5.93.
The like results for `CSc1nc(-c2cccc(NC(=O)CNCC(O)CO)c2)c2c(N)c(C(=O)NC(C)(C)C)sc2n1` (centres unmarked) [Example 7] were, in that order, 7.91 and 5.95.
The corresponding values for `CSc1nc(-c2cccc(NC(=O)CNC(C)(C)CO)c2)c2c(N)c(C(=O)NC(C)(C)C)sc2n1` [Example 2, tert-Butyl 5-amino-2-methylthio-4-(3-((N-(1-hydroxy-2-methyl-prop-2-yl) -glycinyl)-amino)-phenyl)-thieno[2,3-d]pyrimidine-6-carboxamide] are 8.27 and 6.09.
For `C=CCNc1nc(-c2cccc(NC(=O)CNCC(=O)OC)c2)c2c(N)c(C(=O)NC(C)(C)C)sc2n1` [Example 21, tert-Butyl 5-amino-2-allylamino-4-(3-((N-(methoxycarbonylmethyl)-glycinyl)-amino)-phenyl)-thieno[2,3-d]pyrimidine-6-carboxamide], the values for the pEC50 on human LH receptor and on human FSH receptor were 7.24 and 6.25, respectively.
